Data taken from PubChem BioAssay AID224 (DTP/NCI, 2004).
Values joined by “and” are separate entries in the source; they are usually repeats but may differ in a detail not shown here. Equal values may be shown once. Inconclusive results and toxic doses are left out. How the source made its calls: active means survival T/C of 150% or more; inactive means T/C below 125% in these data.

System: P335 leukemia ip, BDF1 mice, survival T/C %
Experiment: NCI In Vivo Anticancer Drug Screen. Data for tumor model P335 Leukemia (intraperitoneal) in B6D2F1 (BDF1) mice
Settings: endpoint: mean survival time, higher = longer survival
Experimental: The antitumor activity of compounds was measured in mice bearing transplantable tumors. Survival or tumor size were measured and the results are expressed as the measurement made in the treated group (T) divided by the measurement made in the vehicle treated control group (C). The tumor model used in this assay is P335 Leukemia (intraperitoneal) in B6D2F1 (BDF1) mice

[1] = dose: 6.25 mg/kg/injection, schedule: Q01DX Z (ip), vehicle: carboxymethylcellulose (CMC)
[2] = dose: 12.5 mg/kg/injection, schedule: Q01DX Z (ip), vehicle: carboxymethylcellulose (CMC)
[3] = dose: 50.0 mg/kg/injection, schedule: Q01DX Z (ip), vehicle: other
[4] = dose: 16.0 mg/kg/injection, schedule: Q01DX Z (ip), vehicle: carboxymethylcellulose (CMC)
[5] = dose: 12.5 mg/kg/injection, schedule: Q01DX Z (sc), vehicle: steriod suspending solution
[6] = dose: 25.0 mg/kg/injection, schedule: Q01DX Z (sc), vehicle: steriod suspending solution
[7] = dose: 50.0 mg/kg/injection, schedule: Q01DX Z (sc), vehicle: steriod suspending solution
[8] = dose: 100.0 mg/kg/injection, schedule: Q01DX Z (sc), vehicle: steriod suspending solution
[9] = dose: 1.6 mg/kg/injection, schedule: Q01DX Z (ip), vehicle: carboxymethylcellulose (CMC)
[10] = dose: 3.1 mg/kg/injection, schedule: Q01DX Z (ip), vehicle: carboxymethylcellulose (CMC)
[11] = dose: 6.2 mg/kg/injection, schedule: Q01DX Z (ip), vehicle: carboxymethylcellulose (CMC)
[12] = dose: 25.0 mg/kg/injection, schedule: Q01DX Z (ip), vehicle: carboxymethylcellulose (CMC)

Measured: T/C

Nc1ncnc2[nH]ncc12
inactive: [1] 89 % of control | [2] 92 % of control

Cc1n[nH]c(=O)[nH]c1=O
inactive: [3] 97 % of control | dose: 100.0 mg/kg/injection, schedule: Q01DX Z (ip), vehicle: other 97 % of control | dose: 200.0 mg/kg/injection, schedule: Q01DX Z (ip), vehicle: other 102 % of control | dose: 400.0 mg/kg/injection, schedule: Q01DX Z (ip), vehicle: other 103 % of control

CC(=O)O[C@]1(C(C)=O)CC[C@H]2[C@@H]3C[C@H](C)C4=CC(=O)C=C[C@]4(C)[C@@]3(F)[C@@H](O)C[C@@]21C
inactive: dose: 0.63 mg/kg/injection, schedule: Q01DX Z (sc), vehicle: steriod suspending solution 107 % of control | dose: 1.25 mg/kg/injection, schedule: Q01DX Z (sc), vehicle: steriod suspending solution 98 % of control | dose: 2.5 mg/kg/injection, schedule: Q01DX Z (sc), vehicle: steriod suspending solution 103 % of control | dose: 5.0 mg/kg/injection, schedule: Q01DX Z (sc), vehicle: steriod suspending solution 90 % of control | dose: 10.0 mg/kg/injection, schedule: Q01DX Z (sc), vehicle: steriod suspending solution 119 % of control | dose: 20.0 mg/kg/injection, schedule: Q01DX Z (sc), vehicle: steriod suspending solution 87 % of control

CC(=O)OCC1OC(n2ncc(=O)[nH]c2=O)C(OC(C)=O)C1OC(C)=O (stereo unspecified)
inactive: dose: 25.0 mg/kg/injection, schedule: Q01DX Z (ip), vehicle: other 120 % of control | [3] 109 % of control | dose: 99.0 mg/kg/injection, schedule: Q01DX Z (ip), vehicle: other 114 % of control | dose: 187.5 mg/kg/injection, schedule: Q01DX Z (ip), vehicle: other 124 % of control | dose: 188.0 mg/kg/injection, schedule: Q01DX Z (ip), vehicle: other 114 % of control

Cc1cc(N(CCCl)CCCl)ccc1N=Nc1ccccc1C(=O)O
inactive: dose: 0.12 mg/kg/injection, schedule: Q01DX Z (ip), vehicle: carboxymethylcellulose (CMC) 90 % of control | dose: 0.23 mg/kg/injection, schedule: Q01DX Z (ip), vehicle: carboxymethylcellulose (CMC) 106 % of control | dose: 0.47 mg/kg/injection, schedule: Q01DX Z (ip), vehicle: carboxymethylcellulose (CMC) 106 % of control | dose: 0.94 mg/kg/injection, schedule: Q01DX Z (ip), vehicle: carboxymethylcellulose (CMC) 94 % of control

O=CCC(O)C(O)C(O)CO (stereo unspecified)
inactive: dose: 0.8 mg/kg/injection, schedule: Q01DX Z (ip), vehicle: carboxymethylcellulose (CMC) 104 % of control | [4] 100 % of control | dose: 31.0 mg/kg/injection, schedule: Q01DX Z (ip), vehicle: carboxymethylcellulose (CMC) 93 % of control | dose: 62.5 mg/kg/injection, schedule: Q01DX Z (ip), vehicle: carboxymethylcellulose (CMC) 114 % of control | dose: 125.0 mg/kg/injection, schedule: Q01DX Z (ip), vehicle: carboxymethylcellulose (CMC) 104 % of control

O=C(O)CCCc1ccc(N(CCCl)CCCl)cc1
inactive: [1] 89 % of control | [2] 89 % of control

CCN(CC)C(=S)S
inactive: dose: 125.0 mg/kg/injection, schedule: Q01DX Z (ip), vehicle: other 92 % of control | dose: 250.0 mg/kg/injection, schedule: Q01DX Z (ip), vehicle: other 105 % of control | dose: 500.0 mg/kg/injection, schedule: Q01DX Z (ip), vehicle: other 106 % of control | dose: 500.0 mg/kg/injection, schedule: Q01DX Z (ip), vehicle: water 102 % of control | dose: 1000.0 mg/kg/injection, schedule: Q01DX Z (ip), vehicle: other 103 % of control | dose: 1000.0 mg/kg/injection, schedule: Q01DX Z (ip), vehicle: water 120 % of control

CC(CCC(C)OS(C)(=O)=O)OS(C)(=O)=O (stereo unspecified)
inactive: dose: 5.0 mg/kg/injection, schedule: Q01DX Z (ip), vehicle: carboxymethylcellulose (CMC) 88 % of control | dose: 10.0 mg/kg/injection, schedule: Q01DX Z (ip), vehicle: carboxymethylcellulose (CMC) 90 % of control | dose: 20.0 mg/kg/injection, schedule: Q01DX Z (ip), vehicle: carboxymethylcellulose (CMC) 87 % of control

CC(=O)[C@H]1CC[C@H]2[C@@H]3C[C@H](C)C4=CC(=O)CC[C@]4(C)[C@H]3C(=O)C[C@]12C
inactive: [5] 120 % of control | [6] 115 % of control | [7] 119 % of control and 124 % of control | [8] 107 % of control | dose: 200.0 mg/kg/injection, schedule: Q01DX Z (sc), vehicle: steriod suspending solution 100 % of control | dose: 400.0 mg/kg/injection, schedule: Q01DX Z (sc), vehicle: steriod suspending solution 88 % of control

CN(C)c1ccc(Nc2c3ccccc3nc3ccccc23)cc1
inactive: [9] 112 % of control | [10] 93 % of control | [11] 96 % of control | [2] 117 % of control

N#Cc1cn(C2OC(CO)C(O)C2O)c2ncnc(N)c12 (stereo unspecified)
inactive: dose: 0.25 mg/kg/injection, schedule: Q01DX Z (ip), vehicle: carboxymethylcellulose (CMC) 106 % of control | dose: 0.5 mg/kg/injection, schedule: Q01DX Z (ip), vehicle: carboxymethylcellulose (CMC) 98 % of control

COc1cc2c(c(OC)c1OC)-c1ccc(OC)c(=O)cc1[C@@H](NC(C)=O)CC2
inactive: dose: 63.0 micrograms/kg/injection, schedule: Q01DX Z (ip), vehicle: saline 104 % of control | dose: 125.0 micrograms/kg/injection, schedule: Q01DX Z (ip), vehicle: saline 101 % of control | dose: 250.0 micrograms/kg/injection, schedule: Q01DX Z (ip), vehicle: saline 104 % of control

c1ccc(CNc2ncnc3[nH]ncc23)cc1
inactive: dose: 4.0 mg/kg/injection, schedule: Q01DX Z (ip), vehicle: carboxymethylcellulose (CMC) 89 % of control | dose: 8.0 mg/kg/injection, schedule: Q01DX Z (ip), vehicle: carboxymethylcellulose (CMC) 90 % of control | [4] 95 % of control | dose: 31.25 mg/kg/injection, schedule: Q01DX Z (ip), vehicle: carboxymethylcellulose (CMC) 101 % of control

C[n+]1c2ccccc2nc2c(N)cc(N)cc21
inactive: [9] 94 % of control | [10] 86 % of control | [11] 97 % of control | [1] 124 % of control | [2] 100 % of control and 114 % of control | [12] 120 % of control

O[C@H](CN1CC1)[C@@H](O)CN1CC1
inactive: dose: 1.8 micrograms/kg/injection, schedule: Q01DX Z (ip), vehicle: carboxymethylcellulose (CMC) 95 % of control | dose: 3.7 micrograms/kg/injection, schedule: Q01DX Z (ip), vehicle: carboxymethylcellulose (CMC) 111 % of control | dose: 7.5 micrograms/kg/injection, schedule: Q01DX Z (ip), vehicle: carboxymethylcellulose (CMC) 119 % of control | dose: 15.0 micrograms/kg/injection, schedule: Q01DX Z (ip), vehicle: carboxymethylcellulose (CMC) 109 % of control

O=c1[nH]c(=O)n(C2CC(O)C(CO)O2)cc1F (stereo unspecified)
inactive: [12] 111 % of control | dose: 50.0 mg/kg/injection, schedule: Q01DX Z (ip), vehicle: carboxymethylcellulose (CMC) 104 % of control | dose: 100.0 mg/kg/injection, schedule: Q01DX Z (ip), vehicle: carboxymethylcellulose (CMC) 111 % of control | dose: 200.0 mg/kg/injection, schedule: Q01DX Z (ip), vehicle: carboxymethylcellulose (CMC) 114 % of control | dose: 400.0 mg/kg/injection, schedule: Q01DX Z (ip), vehicle: carboxymethylcellulose (CMC) 87 % of control | dose: 800.0 mg/kg/injection, schedule: Q01DX Z (ip), vehicle: carboxymethylcellulose (CMC) 86 % of control

C[C@]12C=CC(=O)C=C1CC[C@@H]1[C@@H]2C(=O)C[C@@]2(C)[C@H]1CC[C@]2(O)C(=O)CO
inactive: [5] 101 % of control | [6] 108 % of control | [7] 104 % of control | [8] 108 % of control
